Experimental data from patent US12187992B2, “Method and device for early cancer screening” (The Regents of the University of California, priority 2020, dated 2025).
“Also recorded” adds a separate entry of the source.

Key:
Format in all cases: cell-based, human
[1] = tested on: weakly adherent MDA-MB-231 cells; experiment: 2D migration assay on step-gradient hydrogels under drug treatment (durotaxis); details: WA mammary cells
From the text: (§1) A two-step photopolymerization method was used as described previously (Happe et al., 2017) to produce hydrogels with alternating elasticity profiles. Acrylamide concentrations of the prepolymer solutions were modified to obtain elasticities matching that of the tumor and stromal environment of each type of cancer. For breast cancer hydrogels, 3% acrylamide (3.7% for lung, 6.4% for prostate) and 0.4% bis-acrylamide were used for the first prepolymer solution, which was polymerized between a methacrylated 18 mm coverslip and a chlorosilanated glass slide by exposing to ultraviolet light (350 nm) for 5 minutes, using 2-hydroxy-4′-(2-hydroxyethoxy)-2-methylpropiophenone (0.5%) as the photo-initiator. The PA hydrogel was removed from the chlorosilanated glass slide and dehydrated for 1 hour on a hot plate at 30° C. prior to rehydrating with a 2% acrylamide (3.7% for lung, 3.2% for prostate) and 0.4% bis-acrylamide prepolymer solution. The rehydrated gel was again exposed to UV light for 5 min through a high-resolution chrome patterned photomask 200 μm dark stripes and 100 μm clear stripes. The Young's moduli of each region were validated using atomic force microscopy.
(§2) The hydrogels were then placed in a 12-well plate on top of 50 μl of 2 mg/ml of collagen I to adhere the coverslip to the bottom of the well. After the collagen polymerized, the gels were immersed in a solution of sulfosuccinimidyl 6-(4′-azido-2′-nitrophenylamino)hexanoate (0.2 mg/ml, Sulfo-SANPAH; Pierce) dissolved in 4-(2-hydroxyethyl)-1-piperazineethanesulfonic acid buffer (pH 8.4, 50 mM) and exposed to UV light (350 nm) for 10 minutes. After washing several times with PBS, the functionalized surface of the gels was coated with collagen I (150 μg/ml) by incubating overnight at 37° C.
(§3) Weakly and strongly adherent cells were isolated at varying shear stresses using a parallel plate flow chamber (Beri et al., 2020). To ensure sufficient spacing between individual cells, MDA-MB-231 and NCI-H1299 cells were seeded at […] onto a fibronectin (2 μg/cm^2) coated glass plate and incubated overnight. […] For each cell line, PBS free of magnesium and calcium and with 4.5 g/L of dextrose was used to shear cells. Shear stresses used to detach the weakly adherent (WA) population were selected to collect about 20,000 cells at a given flow rate (3 min at 30 dynes/cm^2 for MDA-MB-231, 3 min at 60 dynes/cm^2 for PC-3 and NCI-H1299 cells). The strongly adherent (SA) population was collected after washing away the intermediate population at a higher shear stress (2 min 500 at dynes/cm^2 for MDA-MB-231, 5 min at 300 dynes/cm^2 for NCI-H1299, and 2 min at 750 dynes/cm^2 for PC-3), and detaching the remaining SA population using 0.25% trypsin-EDTA. Media was then pumped though the device to neutralize the trypsin and collect the SA cells. Collected cells were then seeded onto hydrogels and allowed to adhere for […] 2 hours prior to imaging.
(§4) Isolated cells were seeded at ˜1500 cells/well onto step-gradient gels fixed in a 12-well plate and allowed to adhere for no more than 2 hours to ensure a random distribution across the step-gradient at the start of imaging. The cells were imaged over 24 hours using a Nikon Eclipse Ti-S microscope equipped with a temperature and CO2 controller (Pathology Devices Inc., LiveCell). […] Cell trajectories were collected and analyzed using a custom MATLAB script (https://github.com/compactmatterlab/Durotaxis, MathWorks, Natick, MA). […]

[2] = tested on: strongly adherent MDA-MB231 cells; experiment: 2D migration assay on collagen gels under microtubule-targeting drug treatment; details: nocodazole 0.2 ug/mL, paclitaxel 0.5 ug/mL, tracked 24 hours on collagen gels
Procedure: (§5) To isolate the weakest and strongest 2% of the MDA-MB231 cell population for migration assays, the seeded plate was subjected to a low shear stress (28 dynes/cm^2) for 3 minutes to isolate WA cells in the flow through from the outlet. The shear stress was then increased to a high shear stress (510 dynes/cm^2) for 2 minutes to eliminate intermediate cell fractions. The remaining steps to isolate SA cells are listed above. The weakest MCF10A and […] cells were isolated using 170 and 130 dynes/cm^2 of shear stress respectively; the strongest were isolated using 1275 and 595 dynes/cm^2 respectively. 2D migration assays on collagen gels: 2.4 mg/mL Type I collagen gels were prepared by mixing collagen (Corning) with PBS, DI water, and 1 M NaOH and adjusted to pH 7.0. Gels were added to a 12-well plate and cured at 37° C. for 30 minutes. The weakest and strongest 2% of the cell population were seeded onto the gels and incubated overnight. The cells were imaged with a Nikon Eclipse Ti-S microscope equipped with a temperature- and CO2-controlled stage. Cells were imaged at 10× in brightfield every 15 minutes for 24 hours. The migration data was analyzed via Fiji. The positions were normalized to the starting point and analyzed via a custom MATLAB script to compute instantaneous speed and cell displacement. […] Cells that interacted with other cells for more than 2 hours were not tracked, as cell-cell interactions artificially slowed cell speed. For MDA-MB231 cell migration under drug treatment, cells were treated with either 0.2 μg/mL nocodazole (Cayman Chemical) or 0.5 μg/mL paclitaxel (LC Laboratories). Cells were imaged the following day for 24 hours and tracked as stated above.

[3] = tested on: weakly adherent MDA-MB231 cells; experiment: as above; details: nocodazole 0.2 ug/mL, paclitaxel 0.5 ug/mL, tracked 24 hours on collagen gels
Procedure: as §5

[4] = tested on: strongly adherent MDA-MB-231 cells; experiment: 2D migration assay on step-gradient hydrogels under drug treatment (durotaxis); details: SA mammary cells; LPA 1, 10 μM or DMSO; t=3 and t=24 hours
From the text: as §1, §2, §3, §4

Which “cell speed on soft and stiff substrates” value ([1]; blebbistatin 100 μM vs DMSO, step-gradient hydrogels) does the source give for `Cc1ccc2c(c1)C(=O)[C@]1(O)CCN(c3ccc([N+](=O)[O-])cc3)C1=N2` [blebbistatin, (S)-4′-nitro-Blebbistatin] here?
The value was “decreased”.

And the “durotactic behavior (cell fraction vs hydrogel position), dose dependent response” value ([1]; blebbistatin 1, 10, 100 μM or DMSO, t=3 and t=27 hours)?
Its value is “became more durotactic”.

And the antidurotactic migration ([1]; blebbistatin-treated vs DMSO)?
Its antidurotactic migration is “much less likely”.

And the “likelihood to migrate from the soft substrate into the stiff substrate (durotactic migration)” value ([1]; blebbistatin-treated vs DMSO)?
Its value is 2 fold.

Which results are given for `COC(=O)Nc1nc2ccc(C(=O)c3cccs3)cc2[nH]1` [nocodazole]?
average migration speed [2]: unaffected; also recorded: no change; average migration speed [3]: migration speed reduced to that of the strongly adherent cells; also recorded: significant decrease in migration speed; also recorded: significant decrease in average speed

Which results are given for `CC(=O)O[C@H]1C(=O)[C@@]2(C)[C@H]([C@H](OC(=O)c3ccccc3)[C@]3(O)C[C@H](OC(=O)[C@H](O)[C@@H](NC(=O)c4ccccc4)c4ccccc4)C(C)=C1C3(C)C)[C@]1(OC(C)=O)CO[C@@H]1C[C@@H]2O` [paclitaxel]?
average migration speed [2]: unaffected; also recorded: no change; average migration speed [3]: migration speed reduced to that of the strongly adherent cells; also recorded: significant decrease in migration speed; also recorded: significant decrease in average speed

For “lysophosphatidic acid [lysophophatidic acid]”, which “durotactic behavior (cell fraction vs hydrogel position), dose dependent response” value [4] is on record?
The value was “became less durotactic”.
